Measured values: US20090258873A1, “Novel tetrahydropyridothiophenes” (priority 2005, published 2009)

Tests used:
[1] = tested on: RKO (RKOp27) human colon adenocarcinoma cells; assay: Alamar Blue cell viability assay, anti-proliferative/cytotoxic activity on proliferating RKOp27 cells; type: cell-based; settings: no Ponasterone A, 72 hours incubation, read-out: IC50 RKO p27 uninduced (proliferating)
Protocol: The anti-proliferative I cytotoxic activity of the compounds described herein, can be tested on subclones of RKO (RKOp27) human colon adenocarcinoma cells (Schmidt et al., Oncogene 19, 2423-2429; 2000) using the Alamar Blue cell viability assay (described in O'Brien et al. Eur J Biochem 267, 5421-5426, 2000). The compounds are dissolved as 20 mM solutions in dimethylsulfoxide (DMSO) and subsequently diluted in semi-logarithmic steps. DMSO dilutions are further diluted 1:100 into Dulbecco's modified Eagle's medium (DMEM) containing 10% fetal calf serum to a final concentration twice as much as the final concentration in the test. RKO subclones are seeded into 96 well flat bottom plates at a density of 5000 cells per well in a volume of 50 μl per well. 24 hours after seeding the 50 μl each of the compound dilutions in DMEM medium are added into each well of the 96 Well plate. Each compound dilution is tested as quadruplicates. Wells containing untreated control cells are filled with 50 μl DMEM medium containing 1% DMSO. The cells are then incubated with the substances for 72 hours at 37° C. in a hunified atmosphere containing 5% carbon dioxide. To determine the viability of the cells, 10 μl of an Alamar Blue solution (Biosource) are added and the fluorescence is measured at an extinction of 544 nm and an emission of 590 nm. For the calculation of the cell viability the emission value from untreated cells is set as 100% viability and the emission rates of treated cells are set in relation to the values of untreated cells. Viabilities are expressed as % values.
The corresponding IC50 values of the compounds for anti-proliferative/cytotoxic activity are determined from the concentration-effect curves.
Representative IC50 values for anti-proliferation/cytotoxicity determined in the mentioned assay follow from the following table A, in which the numbers of the compounds correspond to the numbers of the examples.

[2] = tested on: RKO colon adenocarcinoma cells (RKOp27) arrested by ectopic p27Kip1; assay: Alamar Blue cell viability assay on RKOp27 cells arrested by p27Kip1 expression induced with Ponasterone A (cell cycle specific mode of action); type: cell-based; settings: Homo sapiens, RKOp27 cells arrested by p27Kip1 induced with 10 μM Ponasterone A, 72 hours incubation, read-out: IC50 RKO p27 induced (arrested)
Protocol: To determine the cell cycle specific mode of action, subclones of RKO colon adenocarcinoma cells (RKOp27 or RKOp21 as described by Schmidt et al. in Oncogene 19, 2423-2429; 2000) are seeded into 96 well flat bottom plates at a density of 15000 cells per well in a volume of 50 μl per well in DMEM growth medium with 10% FCS containing 10 μM Ponasterone A. 24 hours after seeding the 50 μl each of the compound dilutions in DMEM medium are added into each well of the 96 Well plate. Each compound dilution is tested as quadruplicates. Wells containing untreated control cells are filled with 50 μl DMEM medium containing 1% DMSO. The cells are then incubated with the substances for 72 hours at 37° C. in a humidified atmosphere containing 5% carbon dioxide. To determine the viability of the cells, 10 μl of an Alamar Blue solution (Biosource) are added and the fluorescence was measured at an extinction of 544 nm and an emission of 590 nm. For the calculation of the cell viability the emission value from untreated cells is set as 100% viability and the emission rates of treated cells are set in relation to the values of untreated cells. Viabilities are expressed as % values. Viability is compared of proliferating cells grown in the absence of the inducer Ponasterone A, versus viability of cells arrested by the expression of ectopic p27Kip1 induced by Ponasterone A.

Row | SMILES | IC50 [1] [µM] | IC50 [2] [µM]
1 | N#Cc1c(NC(=O)CCc2ccco2)sc2c1CCN(C(=O)CCn1ccnc1)C2 [Example 15, N-[3-Cyano-6-(3-Imidazo-1-yl-propanoyl)-4,5,6,7-tetrahydro-thieno[2,3-c]pyridin-2-yl]-3-furan-2-yl-propionamide] | ≤ 0.3 | > 100
2 | N#Cc1c(NC(=O)CCc2ccccc2)sc2c1CCN(C(=O)CCn1ccnc1)C2 [Example 16, N-[3-Cyano-6-(3-imidazol-1-yl-propanoyl)-4,5,6,7-tetrahydro-thieno[2,3-c]pyridin-2-yl]-3-phenyl-propionamide] | ≤ 0.3 | > 100
3 | CN1CCN(CCC(=O)N2CCc3c(sc(NC(=O)CCc4ccccc4)c3C#N)C2)CC1 [Example 17, N-[3-Cyano-6-[3-(4-methyl-piperazin-1-yl)-propanoyl]-4,5,6,7-tetrahydro-thieno[2,3-c]pyridin-2-yl]-3-phenyl-propionamide] | 0.3 to 2 | ≥ 40
4 | N#Cc1c(NC(=O)CCc2ccccc2)sc2c1CCN(C(=O)CCN1CCOCC1)C2 [Example 18, N-[3-Cyano-6-(3-morpholin-4-yl-propanoyl)-4,5,6,7-tetrahydro-thieno[2,3-c]pyridin-2-yl]-3-phenyl-propionamide] | 0.3 to 2 | > 100
5 | N#Cc1c(NC(=O)CCc2ccccc2)sc2c1CCN(C(=O)Cn1ccnc1)C2 [Example 19, N-[3-Cyano-6-(2-imidazol-1-yl-ethanoyl)-4,5,6,7-tetrahydro-thieno[2,3-c]pyridin-2-yl]-3-phenyl-propionamide] | 0.3 to 2 | > 100
6 | N#Cc1c(NC(=O)CCc2ccccc2)sc2c1CCN(C(=O)Cc1ccncc1)C2 [Example 20, N-[3-Cyano-6-(2-pyridin-4-yl-ethanoyl)-4,5,6,7-tetrahydro[2,3-c]pyridin-2-yl]-3-phenyl-propionamide] | ≤ 0.3 | > 100
7 | Cc1nc2ccccc2n1CCC(=O)N1CCc2c(sc(NC(=O)CCc3ccccc3)c2C#N)C1 [Example 21] | 0.3 to 2 | > 100
8 | CCCC(=O)N1CCc2c(sc(NC(=O)CCc3ccccc3)c2C#N)C1 [Example 28, N-(6-Butyryl-3-cyano-4,5,6,7-tetrahydro-thieno[2,3-c]pyridin-2-yl)-3-phenyl-propionamide] | ≤ 0.3 | > 100
9 | N#Cc1c(NC(=O)CCc2ccccc2)sc2c1CCN(C(=O)CCc1ccccn1)C2 [Example 30, N-[3-Cyano-6-(3-pyridin-2-yl-propanoyl)-4,5,6,7-tetrahydro-thieno[2,3-c]pyridin-2-yl]-3-phenyl-propionamide] | ≤ 0.3 | > 100
10 | Cc1nccn1CCC(=O)N1CCc2c(sc(NC(=O)CCc3ccccc3)c2C#N)C1 [Example 33, N-{3-Cyano-6-[3-(2-methyl-imidazol-1-yl)propanoyl]-4,5,6,7-tetrahydro-thieno[2,3-c]pyridin-2-yl}-3-phenyl-propionamide] | 0.3 to 2 | ≥ 10
11 | Cn1ccnc1CCC(=O)N1CCc2c(sc(NC(=O)CCc3ccccc3)c2C#N)C1 [Example 35, N-{3-Cyano-4-[3-(1-methyl-1H-imidazo-2-yl)-propanoyl]-4,5,6,7-tetrahydro-thieno[2,3-c]pyridin-2-yl}-3-phenyl-propionamide] | ≤ 0.3 | ≥ 10
12 | Cc1nccn1CC(=O)N1CCc2c(sc(NC(=O)CCc3ccccc3)c2C#N)C1 [Example 38, N-{3-Cyano-6-[2-(2-methyl-imidazol-1-yl)-ethanoyl]-4,5,6,7-tetrahydro-thieno[2,3-c]pyridin-2-yl}-3-phenyl-propionamide] | ≤ 0.3 | > 100
13 | N#Cc1c(NC(=O)CCc2ccccc2)sc2c1CCN(C(=O)CCc1ccncc1)C2 [Example 39, N-[3-Cyano-6-(3-pyridin-4-yl-propanoyl)-4,5,6,7-tetrahydro-thieno[2,3-c]pyridin-2-yl]-3-phenyl-propionamide] | ≤ 0.3 | > 100
14 | Cc1cn(CC(=O)N2CCc3c(sc(NC(=O)CCc4ccccc4)c3C#N)C2)cn1 [Example 41, N-{3-Cyano-6-[2-(4-methyl-imidazol-1-yl)-ethanoyl]-4,5,6,7-tetrahydro-thieno[2,3-c]pyridin-2-yl}-3-phenyl-propionamide] | ≤ 0.3 | > 100
15 | Cc1cn(CC(=O)N2CCc3c(sc(NC(=O)CCc4ccccc4)c3C#N)C2)c(C)n1 [Example 43, N-{3-Cyano 6-[2-(2,4-dimethyl-imidazol-1-yl)-ethanoyl]-4,5,6,7-tetrahydro-thieno[2,3-c]pyridin-2-yl}-3-phenyl-propionamide] | 0.3 to 2 | ≥ 40
16 | Cc1cn(CCC(=O)N2CCc3c(sc(NC(=O)CCc4ccccc4)c3C#N)C2)cn1 [Example 45, N-[3-Cyano-6-[3-(4-methyl-imidazol-1-yl)-propanoyl]-4,5,6,7-tetrahydro-thieno[2,3-c]pyridin-2-yl]-3-phenyl-propionamide] | 0.3 to 2 | ≥ 10
17 | N#Cc1c(NC(=O)CCC2CCCCC2)sc2c1CCN(C(=O)Cc1ccccn1)C2 [Example 53, N-[3-Cyano-6-(2-pyridin-2-yl-ethanoyl)-4,5,6,7-tetrahydro-thieno[2,3-c]pyridin-2-yl]-3-cyclohexyl-propionamide] | ≤ 0.3 | > 100
18 | N#Cc1c(NC(=O)CCC2CCCCC2)sc2c1CCN(C(=O)CCn1ccnc1)C2 [Example 58] | 0.3 to 2 | > 100
